In test [1] the test system is CHO cell line producing mAb3. Briefly: Fed-batch cell performance (viable cell density), clone 3 producing mAb3. In kind it is cell-based, Chinese hamster. As to conditions: mAb3, feed with 400 μM additive. On the procedure: Four different clones of Chinese hamster ovary (CHO) cells expressing three different monoclonal antibodies (mAb) and a fusion protein were tested. Cells were cultivated in spin tubes between 14 and 20 days at 37° C., 5% CO2, and 80% humidity. As starting cell density, 3×10^5 cells/mL in 30 mL Cellvento®4CHO media (pH 7.0±0.1) was used for clone 1 and 2 producing mAb1 and mAb2, respectively (Cellvento® Platform). Cells were cultivated at an agitation rate of 320 rpm and were fed on day 3, 5, 10, 12 and 14 with 3% volume of Cellvento® 4Feed (v/v) and on day 7 with 6% (v/v) of the feed. Clone 3 and 4 producing mAb3 and a fusion protein were inoculated at the same cell density in 30 mL Ex-Cell® Advanced Media (pH 7.2±0.1) while agitation was set to 230 rpm. Clones 3 and 4 were fed with 5% Ex-Cell® Advanced Feed (v/v) on day 3, 5, 7, 10, 12, 14 and 17. […]
The glucose level was maintained above 4 g/L by adding a specific amount of a 400 g/L glucose stock solution on demand to up to 6 g/L during the week and up to 13 g/L over the weekend. Glucose and titer were detected in the supernatant with the bioprocess analyzer CEDEX Bio HT (Roche, Mannheim, Germany) based on spectrophotometric and turbidometric methods. The viable cell density (VCD) and viability were evaluated with a Vi-CELL™ XR 2.04 cell counter (Beckman Coulter, Fullerton, Calif., USA). […]

In test [2] the test system is CHO cell line producing a fusion protein. Briefly: Glycosylation profile (UPLC-MS of released glycans) of fusion protein from fed-batch. The conditions noted are these: 400 μM additive, day 12. It is filed as cell-based, Chinese hamster. On the procedure: Glycosylation patterns were analyzed by ultra-performance liquid chromatography coupled to a mass spectrometer (UPLC-MS). The purified antibody was denaturated and the glycans were released from the antibody by digestion with peptide N-glycosidase F (PNGase F) followed by labeling the glycans with the GlycoWorks™ RapiFluor-MS™ N-Glycan Kit according to the manufacturer protocol. For the analysis, an UPLC glycan column (2.1×150 mm) that separated the glycans according to their […] was used. The chromatography was performed at 45° C. using 50 mM ammonium formate (A), pH 4.4 solution and an acetonitrile (B) gradient. In detail, at the beginning the ratio of A:B was 20:80 (0 min) and changed to 27:73 at 3 min and 37:63 at 35 min at a flow rate of 0.5 ml/min. From 36.5 min to 39.5 min only A was used as mobile phase and the flow rate was reduced to 0.2 ml/min. Subsequently, the ratio was changed to 20% A:80% B and the flowrate was increased to 0.5 ml/min at 43.1 min until the end of the process at 55 min. The detection was performed by a fluorescence detector with an excitation wavelength of 265 nm and an emission wavelength of 425 nm. The identification of the glycan structures was performed by MS using positive electro spray ionization (ESI), which was calibrated every 30 s with a standard.
Four different clones of Chinese hamster ovary (CHO) cells expressing three different monoclonal antibodies (mAb) and a fusion protein were tested. Cells were cultivated in spin tubes between 14 and 20 days at 37° C., 5% CO2, and 80% humidity. As starting cell density, 3×10^5 cells/mL in 30 mL Cellvento®4CHO media (pH 7.0±0.1) was used for clone 1 and 2 producing mAb1 and mAb2, respectively (Cellvento® Platform). Cells were cultivated at an agitation of 320 rpm and were fed on day 3, 5, 10, 12 and 14 with 3% volume of Cellvento® 4Feed (v/v) and on day 7 with 6% (v/v) of the feed. Clone 3 and 4 producing mAb3 and a fusion protein were inoculated at the same cell density in 30 mL Ex-Cell® Advanced Media (pH 7.2±0.1) while agitation was set to 230 rpm (Ex-Cell® Platform). Clones 3 and 4 were fed with […] Advanced Feed (v/v) on day 3, 5, 7, 10, 12, 14 and 17. […] The pH of all Cellvento® feeds was adjusted to 7.0±0.1 and Ex-Cell® Feeds were adjusted to 8.5±0.1. The glucose level was maintained above 4 g/L by adding a specific amount of a 400 g/L glucose stock solution on demand to up to 6 g/L during the week and up to 13 g/L over the weekend. Glucose and titer were detected in the supernatant with the bioprocess analyzer CEDEX Bio HT (Roche, Mannheim, Germany).
To investigate the glycosylation profile during the fed-batch experiment samples were centrifugated and antibodies and Fc-fusion proteins were purified from the cell culture supernatant using protein A PhyTips® (PhyNexus Inc, San Jose, Calif.). Glycosylation patterns were analyzed as described by ultra-performance liquid chromatography coupled to a mass spectrometer (UPLC-MS) using the GlycoWorks™ RapiFluor-MS™ N-Glycan Kit.
Glycosylation profile on day 12 was visualized since harvest of recombinant produced proteins on day 12 is common. Quantification of the glycans was obtained using the relative peak area of the fluorescence signal. Almost all peaks were assigned to glycan structures according to their mass. Unknown glycan structures and signals without mass detection were summarized as unknown species (not shown). Four different clones of Chinese hamster ovary (CHO) cells expressing three different monoclonal antibodies (mAb) and a fusion protein were tested. […] The known positive control achieved a 14% fucosylation level on day 12 by increasing the afucosylation to 78%. The same amount of afucosylation compared to the known fucose-analogue acetylated 2F-Fucose was only achieved by clone 3 expressing mAb3 leading to about 34% afucosylation on day 12 (FIG. 8 C).

Test [3] concerns the target FcγRIIIa V176. The test can be described thus: Surface plasmon resonance (Biacore) binding of mAb3 from treated cultures to FcγRIIIa. As for the experimental part:
Binding of samples after 5-ThioFuc treatment was investigated by surface plasmon resonance technology using a Biacore T200 system (GE Healthcare, Uppsala, Sweden). The analysis temperature was set to 25° C. and sample compartment temperature to 15° C. […] The anti-His antibody was further used to capture His-tagged FcγRIIIa V176 ([…]) from AcroBiosystems (Newark, Del., USA).
Binding was recorded continuously, while unspecific binding and injection artefacts were subtracted automatically. Single-cycle kinetics were used with a dissociation time of 600 s at a flow rate of 30 μL/min. Data collection rate was performed at 10 Hz. Following each experiment, both flow cells were regenerated for 30 s with 10 mM glycine-HCl pH 1.5 according to kit instructions. Data of three technical and two biological replicates were fitted with a 1:1 binding model. The global dissociation constant KD was determined from the ratio of the kinetic rate constants for dissociation (kd) and association (ka) values. Data are presented in Table 1 as fold change compared to the control.

Usually Kd stands for the free concentration of one partner at which half of the binding sites on the other are occupied at equilibrium, for simple one-to-one binding.

In the case of `C[C@@H]1SC(O)[C@@H](O)[C@H](O)[C@@H]1O` (stereo partly shown), the “reduced VCD (area under the curve until day 17, compared to the control)” value in test [1] is listed as “about 13%”. Further, the afucosylation in test [2] was 52%. The “incorporation of fucose analogue (% of the glycans)” value in test [2] was 39%. Besides, the “reduction of core-fucosylation compared to the control” value in test [2] is reported as “about 63%”. Besides, the Kd in test [3] (mAb3 from culture fed with 50 μM additive, day 5) worked out at 85 nM; in test [3] (mAb3 from culture fed with 50 μM additive, day 12) it was 63 nM; in test [3] (mAb3 from culture fed with 50 μM additive, day 14), 61 nM; in test [3] (mAb3 from culture fed with 200 μM additive, day 5), 52 nM; in test [3] (mAb3 from culture fed with 200 μM additive, day 12), 40 nM; in test [3] (mAb3 from culture fed with 200 μM additive, day 14) it was 28 nM. The Kd in test [3] (mAb3 from culture fed with 400 μM additive, day 5) is 35 nM; in test [3] (mAb3 from culture fed with 400 μM additive, day 12), 32 nM; in test [3] (mAb3 from culture fed with 800 μM additive, day 5), 40 nM.

The values are drawn from patent publication US20230022796A1 (Merck Patent GmbH, priority 2019, published 2023).
